What was measured:
Assay in all cases: Kinase inhibitory activity profiling of RI-962@10 µM (406 kinases, Eurofins)
Type in all cases: biochemical
[1] = target: panel of human kinases (kinase named in endpoint) (Homo sapiens, UniProt O96017, R145W); settings: 10 µM; read-out: Activity (%), CHK2(R145W)(h)
How it was run: (§1)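 Radiometric filter-binding kinase assays: enzyme preincubated 15 min with compound in 8 mM MOPS pH 7.0, 0.2 mM EDTA, 250 μM peptide substrate, 10 mM magnesium acetate, 10 μM [γ-33P]-ATP. Reaction started with Mg/ATP, run 40 min at room temperature, stopped with phosphoric acid; 33P incorporation read by scintillation counting. Other kinases by similar protocols.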

[2] = target: panel of human kinases (kinase named in endpoint) (Homo sapiens, UniProt P12931, T341M); settings: 10 µM; read-out: Activity (%), Src(T341M)(h)
How it was run: as §1

[3] = target: panel of human kinases (kinase named in endpoint) (Homo sapiens, UniProt Q9Y6M4); settings: 10 µM; read-out: Activity (%), CK1γ3(h)
How it was run: as §1

[4] = target: panel of human kinases (kinase named in endpoint) (Homo sapiens, UniProt O75385); settings: 10 µM; read-out: Activity (%), ULK1(h)
Sequence of panel of human kinases (kinase named in endpoint) (Homo sapiens, UniProt O75385) (O75385 whole entry): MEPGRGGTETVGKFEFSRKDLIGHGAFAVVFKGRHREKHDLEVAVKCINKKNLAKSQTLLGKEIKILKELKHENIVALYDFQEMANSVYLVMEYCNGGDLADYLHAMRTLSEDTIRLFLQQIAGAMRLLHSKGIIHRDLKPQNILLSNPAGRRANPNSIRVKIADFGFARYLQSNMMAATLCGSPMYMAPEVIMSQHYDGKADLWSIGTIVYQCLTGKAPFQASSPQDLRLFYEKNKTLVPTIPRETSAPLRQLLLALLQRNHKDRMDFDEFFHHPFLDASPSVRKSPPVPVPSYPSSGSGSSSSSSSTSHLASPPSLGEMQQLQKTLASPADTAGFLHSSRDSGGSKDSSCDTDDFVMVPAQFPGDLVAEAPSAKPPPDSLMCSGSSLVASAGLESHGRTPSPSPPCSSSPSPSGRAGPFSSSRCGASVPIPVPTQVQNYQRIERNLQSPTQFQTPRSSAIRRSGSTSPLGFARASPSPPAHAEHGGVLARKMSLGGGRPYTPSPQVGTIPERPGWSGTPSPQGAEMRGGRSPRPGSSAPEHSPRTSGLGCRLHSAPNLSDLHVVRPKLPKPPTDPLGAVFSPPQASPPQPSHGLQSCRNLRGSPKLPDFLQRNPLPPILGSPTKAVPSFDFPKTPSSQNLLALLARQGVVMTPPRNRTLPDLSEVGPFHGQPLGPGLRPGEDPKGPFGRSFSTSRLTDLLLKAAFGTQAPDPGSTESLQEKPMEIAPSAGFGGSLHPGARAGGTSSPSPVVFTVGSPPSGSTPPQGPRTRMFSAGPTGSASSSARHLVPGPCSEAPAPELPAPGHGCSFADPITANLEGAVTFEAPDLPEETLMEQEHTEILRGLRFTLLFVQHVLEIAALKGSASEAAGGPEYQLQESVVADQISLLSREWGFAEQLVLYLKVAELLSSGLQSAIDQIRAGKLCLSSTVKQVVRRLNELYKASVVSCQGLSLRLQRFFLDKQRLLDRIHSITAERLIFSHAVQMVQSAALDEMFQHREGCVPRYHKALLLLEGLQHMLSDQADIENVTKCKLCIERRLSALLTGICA
How it was run: as §1

[5] = target: panel of human kinases (kinase named in endpoint) (Homo sapiens, UniProt Q96NX5); settings: 10 µM; read-out: Activity (%), CaMKIγ(h)
How it was run: as §1

[6] = target: panel of human kinases (kinase named in endpoint) (Homo sapiens, UniProt Q9UPE1); settings: 10 µM; read-out: Activity (%), MSSK1(h)
How it was run: as §1

[7] = target: panel of human kinases (kinase named in endpoint) (Homo sapiens, UniProt O00329); settings: 10 µM; read-out: Activity (%), PI3 Kinase (p110d/p85a)(h)
How it was run: as §1

[8] = target: panel of human kinases (kinase named in endpoint) (Homo sapiens, UniProt P48730); settings: 10 µM; read-out: Activity (%), CK1δ(h)
How it was run: as §1

[9] = target: panel of human kinases (kinase named in endpoint) (Homo sapiens, UniProt Q16512); settings: 10 µM; read-out: Activity (%), PRK1(h)
Sequence of panel of human kinases (kinase named in endpoint) (Homo sapiens, UniProt Q16512) (Q16512 whole entry): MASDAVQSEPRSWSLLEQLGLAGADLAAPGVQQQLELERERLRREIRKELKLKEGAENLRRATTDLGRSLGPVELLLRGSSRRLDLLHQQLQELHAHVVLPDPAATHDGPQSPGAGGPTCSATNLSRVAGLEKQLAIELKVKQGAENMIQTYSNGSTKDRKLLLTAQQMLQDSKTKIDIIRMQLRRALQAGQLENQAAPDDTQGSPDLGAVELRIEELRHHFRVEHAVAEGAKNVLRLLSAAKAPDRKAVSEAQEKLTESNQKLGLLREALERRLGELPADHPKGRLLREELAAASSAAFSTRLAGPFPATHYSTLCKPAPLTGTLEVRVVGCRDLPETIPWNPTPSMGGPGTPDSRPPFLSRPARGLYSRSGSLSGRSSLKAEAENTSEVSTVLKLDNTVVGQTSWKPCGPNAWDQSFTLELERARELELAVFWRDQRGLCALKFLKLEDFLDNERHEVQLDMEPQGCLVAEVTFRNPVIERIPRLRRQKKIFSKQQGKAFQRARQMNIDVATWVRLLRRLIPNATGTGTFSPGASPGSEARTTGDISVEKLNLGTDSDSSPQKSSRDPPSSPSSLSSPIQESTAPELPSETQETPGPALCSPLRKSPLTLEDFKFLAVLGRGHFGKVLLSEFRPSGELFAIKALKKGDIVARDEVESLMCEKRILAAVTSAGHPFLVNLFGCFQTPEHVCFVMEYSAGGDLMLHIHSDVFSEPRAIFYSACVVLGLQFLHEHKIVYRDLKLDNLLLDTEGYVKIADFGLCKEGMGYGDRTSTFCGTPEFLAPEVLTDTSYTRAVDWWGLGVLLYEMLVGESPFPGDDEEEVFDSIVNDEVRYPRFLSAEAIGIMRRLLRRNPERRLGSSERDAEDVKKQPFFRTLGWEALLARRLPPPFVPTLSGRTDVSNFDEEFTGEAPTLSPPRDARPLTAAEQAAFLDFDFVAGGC
How it was run: as §1

[10] = target: panel of human kinases (kinase named in endpoint) (Homo sapiens, UniProt P08581, Y1230H); settings: 10 µM; read-out: Activity (%), Met(Y1248H)(h)
How it was run: as §1

[11] = target: panel of human kinases (kinase named in endpoint) (Homo sapiens, UniProt P07949); settings: 10 µM; read-out: Activity (%), Ret(h)
How it was run: as §1

[12] = target: panel of human kinases (kinase named in endpoint) (Homo sapiens, UniProt P78368); settings: 10 µM; read-out: Activity (%), CK1γ2(h)
How it was run: as §1

[13] = target: panel of human kinases (kinase named in endpoint) (Homo sapiens, UniProt O75582); settings: 10 µM; read-out: Activity (%), MSK1(h)
Sequence of panel of human kinases (kinase named in endpoint) (Homo sapiens, UniProt O75582) (O75582 whole entry): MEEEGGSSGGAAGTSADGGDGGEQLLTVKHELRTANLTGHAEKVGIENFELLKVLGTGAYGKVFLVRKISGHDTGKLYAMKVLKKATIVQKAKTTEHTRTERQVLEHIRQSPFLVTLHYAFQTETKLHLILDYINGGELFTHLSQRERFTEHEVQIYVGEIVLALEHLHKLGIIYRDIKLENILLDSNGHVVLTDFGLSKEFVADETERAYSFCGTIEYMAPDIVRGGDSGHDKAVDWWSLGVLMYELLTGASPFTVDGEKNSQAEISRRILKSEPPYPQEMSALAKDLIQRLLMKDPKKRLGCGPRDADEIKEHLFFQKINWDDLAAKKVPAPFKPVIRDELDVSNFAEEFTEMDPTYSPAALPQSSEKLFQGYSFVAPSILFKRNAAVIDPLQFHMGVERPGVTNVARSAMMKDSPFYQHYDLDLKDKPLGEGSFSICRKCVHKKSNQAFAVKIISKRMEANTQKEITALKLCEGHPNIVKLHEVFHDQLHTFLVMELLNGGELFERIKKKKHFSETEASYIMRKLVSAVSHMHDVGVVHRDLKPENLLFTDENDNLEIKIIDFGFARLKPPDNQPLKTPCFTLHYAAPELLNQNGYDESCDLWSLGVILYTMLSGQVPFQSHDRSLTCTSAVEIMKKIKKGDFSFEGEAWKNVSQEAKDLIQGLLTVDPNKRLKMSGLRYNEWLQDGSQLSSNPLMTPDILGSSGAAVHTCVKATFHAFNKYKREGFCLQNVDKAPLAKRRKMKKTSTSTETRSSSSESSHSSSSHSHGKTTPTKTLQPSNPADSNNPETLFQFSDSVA
How it was run: as §1

[14] = target: panel of human kinases (kinase named in endpoint) (Homo sapiens, UniProt Q8WTQ7); settings: 10 µM; read-out: Activity (%), GRK7(h)
How it was run: as §1

[15] = target: panel of human kinases (kinase named in endpoint) (Homo sapiens, UniProt Q8TDC3); settings: 10 µM; read-out: Activity (%), BrSK1(h)
Sequence of panel of human kinases (kinase named in endpoint) (Homo sapiens, UniProt Q8TDC3) (Q8TDC3 whole entry): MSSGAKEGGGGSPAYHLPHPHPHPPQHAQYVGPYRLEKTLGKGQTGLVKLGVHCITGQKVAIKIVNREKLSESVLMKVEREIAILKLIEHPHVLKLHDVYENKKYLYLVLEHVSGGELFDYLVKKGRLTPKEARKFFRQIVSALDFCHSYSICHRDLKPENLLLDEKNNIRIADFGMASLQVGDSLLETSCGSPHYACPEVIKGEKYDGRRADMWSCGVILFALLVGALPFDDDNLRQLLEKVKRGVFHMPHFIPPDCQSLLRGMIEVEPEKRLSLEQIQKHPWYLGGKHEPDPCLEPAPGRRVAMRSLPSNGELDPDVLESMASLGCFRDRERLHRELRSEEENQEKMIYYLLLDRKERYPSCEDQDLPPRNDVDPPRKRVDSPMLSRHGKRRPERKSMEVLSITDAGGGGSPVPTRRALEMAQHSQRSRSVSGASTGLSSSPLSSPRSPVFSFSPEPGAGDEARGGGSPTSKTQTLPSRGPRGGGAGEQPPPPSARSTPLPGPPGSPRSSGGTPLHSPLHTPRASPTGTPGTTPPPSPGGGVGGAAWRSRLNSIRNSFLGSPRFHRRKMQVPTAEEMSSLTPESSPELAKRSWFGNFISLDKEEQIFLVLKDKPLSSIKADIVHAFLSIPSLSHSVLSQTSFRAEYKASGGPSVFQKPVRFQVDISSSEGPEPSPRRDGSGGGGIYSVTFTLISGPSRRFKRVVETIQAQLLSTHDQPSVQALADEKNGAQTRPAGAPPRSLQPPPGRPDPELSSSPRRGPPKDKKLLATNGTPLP
How it was run: as §1

[16] = target: panel of human kinases (kinase named in endpoint) (Homo sapiens, UniProt Q05513); settings: 10 µM; read-out: Activity (%), PKCζ(h)
How it was run: as §1

[17] = target: panel of human kinases (kinase named in endpoint) (Homo sapiens, UniProt P07947); settings: 10 µM; read-out: Activity (%), Yes(h)
How it was run: as §1

[18] = target: panel of human kinases (kinase named in endpoint) (Homo sapiens, UniProt P34947); settings: 10 µM; read-out: Activity (%), GRK5(h)
Sequence of panel of human kinases (kinase named in endpoint) (Homo sapiens, UniProt P34947) (P34947 whole entry): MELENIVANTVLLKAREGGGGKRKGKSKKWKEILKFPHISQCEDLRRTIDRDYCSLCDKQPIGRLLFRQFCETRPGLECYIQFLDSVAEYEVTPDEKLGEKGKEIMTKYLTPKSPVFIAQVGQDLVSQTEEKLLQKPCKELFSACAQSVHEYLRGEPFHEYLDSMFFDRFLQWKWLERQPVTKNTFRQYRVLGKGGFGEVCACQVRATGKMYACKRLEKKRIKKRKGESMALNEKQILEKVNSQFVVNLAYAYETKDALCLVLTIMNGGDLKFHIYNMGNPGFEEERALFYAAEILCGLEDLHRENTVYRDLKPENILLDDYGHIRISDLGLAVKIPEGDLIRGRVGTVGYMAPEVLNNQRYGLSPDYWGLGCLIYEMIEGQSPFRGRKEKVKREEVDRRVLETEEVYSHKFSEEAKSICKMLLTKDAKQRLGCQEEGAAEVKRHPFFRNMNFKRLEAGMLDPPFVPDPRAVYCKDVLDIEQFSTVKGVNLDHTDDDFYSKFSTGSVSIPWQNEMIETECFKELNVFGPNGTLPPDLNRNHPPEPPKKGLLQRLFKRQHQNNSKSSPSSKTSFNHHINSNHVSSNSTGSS
How it was run: as §1

[19] = target: panel of human kinases (kinase named in endpoint) (Homo sapiens, UniProt Q92772); settings: 10 µM; read-out: Activity (%), CDKL2(h)
How it was run: as §1

[20] = target: panel of human kinases (kinase named in endpoint) (Homo sapiens, UniProt Q13554); settings: 10 µM; read-out: Activity (%), CaMKIIβ(h)
How it was run: as §1

[21] = target: panel of human kinases (kinase named in endpoint) (Homo sapiens, UniProt P24723); settings: 10 µM; read-out: Activity (%), PKCη(h)
How it was run: as §1

[22] = target: panel of human kinases (kinase named in endpoint) (Homo sapiens, UniProt Q02763, R849W); settings: 10 µM; read-out: Activity (%), Tie2(R849W)(h)
How it was run: as §1

[23] = target: panel of human kinases (kinase named in endpoint) (Homo sapiens, UniProt Q15349); settings: 10 µM; read-out: Activity (%), Rsk3(h)
How it was run: as §1

[24] = target: panel of human kinases (kinase named in endpoint) (Homo sapiens, UniProt Q9P2K8); settings: 10 µM; read-out: Activity (%), GCN2(h)
How it was run: as §1

[25] = target: panel of human kinases (kinase named in endpoint) (Homo sapiens, UniProt Q8NG66); settings: 10 µM; read-out: Activity (%), NEK11(h)
Sequence of panel of human kinases (kinase named in endpoint) (Homo sapiens, UniProt Q8NG66) (Q8NG66 whole entry): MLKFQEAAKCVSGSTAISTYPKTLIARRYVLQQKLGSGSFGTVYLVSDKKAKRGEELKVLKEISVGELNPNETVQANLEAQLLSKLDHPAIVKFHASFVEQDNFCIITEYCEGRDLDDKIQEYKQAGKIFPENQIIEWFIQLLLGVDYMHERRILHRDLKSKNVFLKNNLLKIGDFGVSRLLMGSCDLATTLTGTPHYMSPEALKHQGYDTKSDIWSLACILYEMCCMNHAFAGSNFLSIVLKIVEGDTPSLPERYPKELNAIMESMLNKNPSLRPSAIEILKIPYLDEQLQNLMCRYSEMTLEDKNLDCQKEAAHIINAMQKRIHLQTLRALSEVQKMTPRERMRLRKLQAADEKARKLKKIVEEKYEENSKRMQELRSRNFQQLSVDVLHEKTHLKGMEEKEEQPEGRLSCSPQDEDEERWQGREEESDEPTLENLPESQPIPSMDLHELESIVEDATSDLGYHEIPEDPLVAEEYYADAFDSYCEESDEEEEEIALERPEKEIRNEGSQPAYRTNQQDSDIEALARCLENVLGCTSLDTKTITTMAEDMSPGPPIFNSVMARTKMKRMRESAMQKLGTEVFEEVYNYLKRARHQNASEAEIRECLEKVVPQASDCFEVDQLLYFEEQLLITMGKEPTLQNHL
How it was run: as §1

CC(C)C(=O)Nc1nc2cc(-c3ccc4c(c3)c(C(=O)NC(C)c3ccccc3)cn4C)ccn2n1 (stereo not shown) [RI-962]
activity at 10 µM [1]: 99%
activity at 10 µM [2]: 100%
activity at 10 µM [3]: 96%
activity at 10 µM [4]: 69%
activity at 10 µM [5]: 113%
activity at 10 µM [6]: 85%
activity at 10 µM [7]: 64%
activity at 10 µM [8]: 108%
activity at 10 µM [9]: 109%
activity at 10 µM [10]: 99%
activity at 10 µM [11]: 114%
activity at 10 µM [12]: 88%
activity at 10 µM [13]: 112%
activity at 10 µM [14]: 60%
activity at 10 µM [15]: 100%
activity at 10 µM [16]: 119%
activity at 10 µM [17]: 97%
activity at 10 µM [18]: 80%
activity at 10 µM [19]: 77%
activity at 10 µM [20]: 109%
activity at 10 µM [21]: 99%
activity at 10 µM [22]: 109%
activity at 10 µM [23]: 110%
activity at 10 µM [24]: 76%
activity at 10 µM [25]: 89%

— paper PMC9653409, “Generative deep learning enables the discovery of a potent and selective RIPK1 inhibitor” (Nature Communications, 2022)
